{"source": "patent US12133846B2", "about": "“Electrophilic androgen receptor (AR) antagonists for AR downregulation and ferroptosis induction in cancer cells” (priority 2019, dated 2024)", "key": {"[1]": {"system": "AR, AR-V7, c-Myc, HO-1, Hsp70", "test": "Western blotting under BSO combination, VCaP cells", "type": "cell-based", "procedure": "(§1) It was first investigated if iron chelators or antioxidants could rescue the viability of drug combination-treated cells. […] HO-1 catalyzes the decomposition of heme into carbon monoxide, biliverdin, and Fe^2+. […] Both Fer-1 and the lipophilic antioxidant α-Toc can effectively scavenge radicals in phosphatidylcholine lipid bilayers and break the redox cycle that generates lipid hydroperoxide.\n(§2) Western Blotting. […] Proteins in cell lysates (40 μg) were separated using electrophoresis on SDS-PAGE and transferred onto PVDF (polyvinylidenedifluoride) membranes. Membranes were blocked in 5% fat-free milk followed by incubation with primary antibodies overnight at 4° C., and the secondary horseradish peroxidase-conjugated anti-rabbit or anti-mouse antibodies. The blots were developed in the Enhanced Chemiluminescence mixture and detected by ImageQuant™ LAS 4000 imaging system (GE). Density of protein bonds were calculated and analyzed by using imageJ software downloaded from the National Institute of Health website."}, "VCaP cells [2]": {"system": "VCaP cells", "test": "Ferroptosis rescue/enhancement of 2-63 plus BSO, MTT, VCaP cells", "type": "cell-based", "conditions": "for rescue of 2-63 plus BSO-caused viability loss, VCaP cells: BSO 100 μM 16 h, 2-63 2.5 μM 24 h, DFO 100 μM, α-Toc 100 μM, Fer-1 0.5 μM, ZnPP 3 μM", "from_the_text": "as §1"}, "22Rv1 cells [3]": {"system": "22Rv1 cells", "test": "Ferroptosis rescue of 2-63 plus BSO, MTT, 22Rv1 cells", "type": "cell-based", "conditions": "BSO 100 μM 16 h, 2-63 5 μM 24 h; DFO 100 μM, α-Toc 100 μM, Fer-1 0.5 μM, ZnPP 3 μM", "from_the_text": "as §1"}, "VCaP cells [4]": {"system": "VCaP cells", "test": "3-79 plus BSO, MTT viability, VCaP cells", "type": "cell-based", "conditions": "for rescue of 3-79 plus BSO-induced viability loss, VCaP cells: 3-79 10 μM, BSO 100 μM, DFO 100 μM, α-Toc 100 μM, Fer-1 0.5 μM", "procedure": "3-79 and BSO effectively reduce the viability of VCaP cells. […] The viability loss of VCaP cells is rescued by antioxidants and iron chelators. […] Data (n=6-8) represent mean±SD obtained from MTT assay. Statistical significance was assessed by using two-tailed Student's t-tests. ***, P<0.001."}, "[5]": {"system": "acetylation of α-tubulin and histone H3 (markers for HDAC6 and nuclear HDAC inhibition)", "test": "Western blotting of acetylation markers in VCaP cells", "type": "cell-based", "conditions": "16 h, 2-63 and 12b 5 and 15 μM, SAHA 1 μM; for α-tubulin acetylation: SFN 15 μM", "procedure": "as §2"}, "[6]": {"system": "AR transcriptional activity in MDA-kb2 cells", "test": "cells", "type": "cell-based", "conditions": "DHT 1 nM; for suppression of DHT-stimulated luciferase activity: 1-5 μM; for AR inhibition at higher concentrations relative to comparators: 2.5 and 5 μM; for inhibition at 1 µM: MDA-kb2, 1 μM compound, read-out: inhibition of DHT-stimulated luciferase activity", "procedure": "MDA-kb2-cell-based ARE luciferase assays were performed to assess the influence of 2-63 and related compounds on AR transcriptional activity. […] Upon androgen stimulation and addition of a luciferase substrate, […], and the intensity is proportional to the extent of AR activation. An agent that either antagonistically competes with DHT for AR binding or reduces the expression of AR diminishes luciferase activity/fluorescence signal in this experimental system. […] 10b (an alcohol) and 11 b (an azide) are synthetic precursors of the ITC hybrid 12b.\nLuciferase Assay. […] For all procedures, cells were incubated at CO2 free condition. Steady-Glo® (Promega Corp., Madison, WI) reagent was added to culture media with shaking for 10 min. Samples (100 μL) were transferred to an opaque 96-well white plate, and luminescence was measured using a luminometer."}, "C4-2 cells [7]": {"system": "C4-2 cells", "conditions": "for potentiation by BSO compared to 2-63, C4-2 cells: drug 2.5 μM, BSO pretreatment 16 h, 24 h", "quoted_text": "(§4) Cell viability was then assessed using an MTT assay.\n(§5) PCa cells (6×10^3 cells/well) were seeded into 96-well plates overnight and then treated with indicated compounds at indicated concentrations and time durations. The MTT (3-(4, 5-Dimethylthiazol-2-yl)-2,5-diphenyltetrazolium bromide) assay was performed according to the standard protocol. Briefly, MTT (0.5 mg/mL) was incubated with cells at 37° C. for 3 hours. Supernatant was removed, followed by the addition of dimethyl DMSO (100 μl). After incubation for 30 minutes at 37° C., absorbance was read at 570 nm on a microplate reader."}, "VCaP cells [8]": {"system": "VCaP cells", "test": "BSO pretreatment plus drug, MTT viability, VCaP cells", "conditions": "drug 2.5 μM, BSO pretreatment 16 h, 24 h", "quoted_text": "as §4, §5"}, "22Rv1 cells [9]": {"system": "22Rv1 cells", "test": "BSO pretreatment plus drug, MTT viability, 22Rv1 cells", "conditions": "drug 2.5 μM, BSO pretreatment 16 h, 24 h", "quoted_text": "as §4, §5"}, "VCaP cells [10]": {"system": "VCaP cells", "test": "MTT viability assay, VCaP cells", "type": "cell-based", "conditions": "72 h, full media, MTT, read-out: IC50, viability of VCaP cells", "from_the_text": "(§3) Biological Characterization. ITC-ARi hybrid drugs effectively reduce the viability of PCa cells. By using an MTT assay, it was first examined if the newly synthesized hybrid drugs affect the viability of CRPC-relevant PCa cells. PCa VCaP cells naturally express abundant wild type FL AR as well as AR splice variants (e.g., AR-V7). These cells were, therefore, used as one of the cell culture models in this work to investigate the drug-caused viability loss and AR downregulation."}, "C4-2 cells [11]": {"system": "C4-2 cells", "conditions": "5 μM, DHT 1 nM, charcoal stripped FBS, 6 days", "quoted_text": "The medium and drug were refreshed every two days.\nThe anti-PCa potential of 2-63 was further characterized by assessing its inhibitory effects on DHT-stimulated C4-2 cell growth. […] C4-2 cells were cultured in charcoal-stripped, steroid-free medium and cells were stimulated with androgen."}, "22Rv1 cells [12]": {"system": "22Rv1 cells", "test": "MTT viability assay, 22Rv1 cells", "type": "cell-based", "conditions": "5 μM, 72 h", "from_the_text": "as §3"}, "C4-2 cells [13]": {"system": "C4-2 cells", "test": "MTT viability assay, C4-2 cells", "type": "cell-based", "conditions": "5 μM, 72 h", "from_the_text": "as §3"}, "Hsp90, Hsp70, HO-1": {"system": "Hsp90, Hsp70, HO-1", "test": "Western blotting of Hsp90, Hsp70 and HO-1 in VCaP cells", "type": "cell-based", "conditions": "16 h, 5 and 15 μM", "procedure": "as §2"}}, "note": "Like-named read-outs stand apart in the source and are kept apart here."}
{"molecule": "CCOC(=O)c1ccc(NC2CCCCC2)c(N)c1", "note": "[Fer-1, ferrostatin-1]", "values": [{"measurement": "rescue of AR/AR-V7 under 2-63 plus BSO, VCaP cells", "setting": "[1]; DFO 100 μM, Fer-1 1 μM, BSO 100 μM, 2-63 2.5 μM, 24 h", "result": "failed to rescue AR/AR-V7"}, {"measurement": "rescue of 2-63 plus BSO-caused viability loss, VCaP cells", "setting": "VCaP cells [2]", "result": "rescued"}, {"measurement": "rescue of 2-63 plus BSO-caused viability loss, 22Rv1 cells", "setting": "22Rv1 cells [3]", "result": "rescued"}, {"measurement": "rescue of 3-79 plus BSO-induced viability loss, VCaP cells", "setting": "VCaP cells [4]", "result": "rescued"}]}
{"molecule": "Cc1c(C)c2c(c(C)c1O)CC[C@@](C)(CCC[C@H](C)CCC[C@H](C)CCCC(C)C)O2", "note": "[α-Toc, α-tocopherol]", "values": [{"measurement": "rescue of 2-63 plus BSO-caused viability loss, VCaP cells", "setting": "VCaP cells [2]", "result": "rescued"}, {"measurement": "rescue of 2-63 plus BSO-caused viability loss, 22Rv1 cells", "setting": "22Rv1 cells [3]", "result": "rescued"}, {"measurement": "rescue of 3-79 plus BSO-induced viability loss, VCaP cells", "setting": "VCaP cells [4]", "result": "rescued"}]}
{"molecule": "O=C(CCCCCCC(=O)Nc1ccccc1)NO", "note": "[SAHA, suberoylanilide hydroxamic acid, reference compound]", "values": [{"measurement": "histone H3 acetylation", "setting": "[5]", "result": "induced notable global acetylation"}, {"measurement": "α-tubulin acetylation", "setting": "[5]", "result": "induced notable global acetylation"}]}
{"molecule": "C=CC1=C(C)c2cc3[n-]c(cc4[n-]c(cc5nc(cc1n2)C(C)=C5C=C)c(C)c4CCC(=O)O)c(CCC(=O)O)c3C.[Zn+2]", "note": "[ZnPP, Zinc(II) protoporphyrin IX]", "values": [{"measurement": "rescue of 2-63 plus BSO-caused viability loss, VCaP cells", "setting": "VCaP cells [2]", "result": "notable cytoprotective effects"}, {"measurement": "rescue of 2-63 plus BSO-caused viability loss, 22Rv1 cells", "setting": "22Rv1 cells [3]", "result": "notable cytoprotective effects"}]}
{"molecule": "CC1(C)C(=O)N(c2ccc(C#N)c(C(F)(F)F)c2)C(=S)N1c1ccc(CCCCCCN=[N+]=[N-])nc1", "note": "[11b, 4-(3-(6-(6-Azidohexyl)pyridin-3-yl)-4,4-dimethyl-5-oxo-2-thioxoimidazolidin-1-yl)-2-(trifluoromethyl) benzonitrile]", "values": [{"measurement": "suppression of DHT-stimulated luciferase activity", "setting": "[6]", "result": "decreased luciferase activity in a dose-dependent manner"}, {"measurement": "AR inhibition at higher concentrations relative to comparators", "setting": "[6]", "result": "Enz-comparable"}, {"measurement": "inhibition at 1 µM", "setting": "[6]", "result": 60, "unit": "%"}, {"measurement": "potentiation by BSO compared to 2-63, C4-2 cells", "setting": "C4-2 cells [7]", "result": "more limited"}, {"measurement": "potentiation by BSO compared to 2-63, VCaP cells", "setting": "VCaP cells [8]", "result": "more limited"}, {"measurement": "potentiation by BSO compared to 2-63, 22Rv1 cells", "setting": "22Rv1 cells [9]", "result": "more limited"}]}
{"molecule": "ferric ammonium citrate", "values": [{"measurement": "effect of exogenous iron on BSO plus 2-63 combination, VCaP cells", "setting": "VCaP cells [2]; ferric ammonium citrate 25 μM, BSO 100 μM, 2-63 1 μM", "result": "exacerbated the lethal effect"}, {"measurement": "effect of exogenous iron on BSO plus 2-63 combination, C4-2 cells", "setting": "C4-2 cells [7]; ferric iron 25 μM, BSO 100 μM, 2-63 0.6-5 μM", "result": "significantly enhanced the suppressive effects"}]}
{"molecule": "CC1(C)C(=O)N(c2ccc(C#N)c(C(F)(F)F)c2)C(=S)N1c1ccc(CCCCN=C=S)nc1", "note": "[12a, 4-(3-(6-(4-Isothiocyanatobutyl)pyridin-3-yl)-4,4-dimethyl-5-oxo-2-thioxoimidazolidin-1-yl)-2-(trifluoromethyl) benzonitrile]", "values": [{"measurement": "IC50", "setting": "VCaP cells [10]; Homo sapiens, VCaP", "result": 4.85, "unit": "µM"}]}
{"molecule": "C[C@]12CCC(=O)C[C@@H]1CC[C@@H]1[C@@H]2CC[C@]2(C)[C@@H](O)CC[C@@H]12", "note": "[DHT, 5α-dihydrotestosterone, reference compound]", "values": [{"measurement": "increase of luciferase activity", "setting": "[6]; 24 h", "result": 8.6, "unit": "fold"}]}
{"molecule": "CN(C)C/C=C/C(=O)Nc1ccc(N2C(=S)N(c3ccc(C#N)c(C(F)(F)F)c3)C(=O)C2(C)C)cc1F", "note": "[3-79, (E)-N-(4-(3-(4-cyano-3-(trifluoromethyl)phenyl)-5,5-dimethyl-4-oxo-2-thioxoimidazolidin-1-yl)-2-fluorophenyl)-4-(dimethylamino)but-2-enamide]", "values": [{"measurement": "potency of 3-79 in viability suppression with BSO", "setting": "VCaP cells [4]; VCaP, 3-79 10 μM plus BSO 100 μM", "result": "increased under GSH deficient conditions"}]}
{"molecule": "CC1(C)C(=O)N(c2ccc(C#N)c(C(F)(F)F)c2)C(=S)N1c1ccc(CCCCCCO)nc1", "note": "[10b, 4-(3-(6-(6-Hydroxyhexyl)pyridin-3-yl)-4,4-dimethyl-5-oxo-2-thioxoimidazolidin-1-yl)-2-(trifluoromethyl) benzonitrile]", "values": [{"measurement": "suppression of DHT-stimulated luciferase activity", "setting": "[6]", "result": "decreased luciferase activity in a dose-dependent manner"}, {"measurement": "AR inhibition at higher concentrations relative to comparators", "setting": "[6]", "result": "Enz-comparable"}, {"measurement": "inhibition at 1 µM", "setting": "[6]", "result": 60, "unit": "%"}]}
{"molecule": "CNC(=O)c1ccc(N2C(=S)N(c3ccc(C#N)c(C(F)(F)F)c3)C(=O)C2(C)C)cc1F", "note": "[Enz, 4-(3-(4-cyano-3-(trifluoromethyl)phenyl)-5,5-dimethyl-4-oxo-2-thioxoimidazolidin-1-yl)-2-fluoro-N-methyl benzamide, reference compound]", "values": [{"measurement": "expression of examined cellular markers (AR, c-Myc, HO-1)", "setting": "[1]; VCaP, Enz 10 μM, with or without BSO 100 μM, except upregulating AR-V7", "result": "did not affect"}, {"measurement": "viability reduction of DHT-stimulated C4-2 cells", "setting": "C4-2 cells [11]", "result": 25, "unit": "%"}]}
{"molecule": "CC(=O)NC(CSC(=S)NCCc1ccccc1)C(=O)O", "note": "(stereo not shown) [PEITC-NAC, reference compound]", "values": [{"measurement": "IC50", "setting": "VCaP cells [10]", "result": 10.1, "unit": "µM"}, {"measurement": "relative potency in viability reduction, 22Rv1 cells", "setting": "22Rv1 cells [12]", "result": 12, "unit": "b>2-63>PEITC-NAC"}, {"measurement": "relative potency in viability reduction, C4-2 cells", "setting": "C4-2 cells [13]", "result": 12, "unit": "b>2-63>PEITC-NAC"}, {"measurement": "potentiation by BSO compared to 2-63, C4-2 cells", "setting": "C4-2 cells [7]", "result": "more limited"}, {"measurement": "potentiation by BSO compared to 2-63, VCaP cells", "setting": "VCaP cells [8]", "result": "more limited"}, {"measurement": "potentiation by BSO compared to 2-63, 22Rv1 cells", "setting": "22Rv1 cells [9]", "result": "more limited"}]}
{"molecule": "C[S+]([O-])CCCCN=C=S", "note": "(stereo not shown) [SFN, sulforaphane, reference compound]", "values": [{"measurement": "α-tubulin acetylation", "setting": "[5]", "result": "upregulated"}, {"measurement": "HO-1 protein level", "setting": "Hsp90, Hsp70, HO-1", "result": "dose-dependently upregulated"}, {"measurement": "Hsp70 protein level", "setting": "Hsp90, Hsp70, HO-1", "result": "significantly induced"}, {"measurement": "Hsp90 protein level", "setting": "Hsp90, Hsp70, HO-1", "result": "did not change"}]}
